This assay concerns the target T1, recombinant human truncated SHIP1 (tSHIP1) (Homo sapiens, UniProt Q92835).
T1 construct: tSHIP1 (SHIP1, residues 397-864) was amplified from pET24TEV-tSHIP1; His tag; made in house; host or cells: E. coli BL21
T1 sequence (Q92835 397-864): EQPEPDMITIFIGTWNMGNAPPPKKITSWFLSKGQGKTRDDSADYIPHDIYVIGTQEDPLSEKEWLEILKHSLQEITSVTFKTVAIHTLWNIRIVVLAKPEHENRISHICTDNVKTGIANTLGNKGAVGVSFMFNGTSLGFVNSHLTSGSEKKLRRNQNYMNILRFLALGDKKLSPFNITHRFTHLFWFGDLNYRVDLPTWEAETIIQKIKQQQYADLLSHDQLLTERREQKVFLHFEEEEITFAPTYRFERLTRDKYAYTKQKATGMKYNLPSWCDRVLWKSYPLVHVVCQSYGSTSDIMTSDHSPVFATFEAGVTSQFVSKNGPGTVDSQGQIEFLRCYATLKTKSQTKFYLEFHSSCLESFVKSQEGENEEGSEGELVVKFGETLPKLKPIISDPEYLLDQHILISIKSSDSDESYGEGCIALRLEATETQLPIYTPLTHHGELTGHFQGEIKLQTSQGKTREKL
The assay can be described thus: Malachite Green Phosphatase Release Assay (SHIP1 phosphatase activity). It counts as biochemical. As to conditions: for Phosphatase activity in the Malachite Green Assay, analog concentration 125 μM: 125 μM analog; for Phosphatase activity in the Malachite Green Assay, analog concentration 125 μM / Phosphatase activity in the Malachite Green Assay, analog concentration 250 μM / Phosphatase activity in the Malachite Green Assay, analog concentration 500 μM: 100 μM PI(3,4,5)P3-diC8 substrate, normalized to vehicle control (DMSO) = 100%; for Phosphatase activity in the Malachite Green Assay, analog concentration 250 μM: 250 μM analog; for Phosphatase activity in the Malachite Green Assay, analog concentration 500 μM: 500 μM analog, >100% activation, <100% inhibition; for SHIP1 activator activity in the malachite green assay: discussion of Table 4 (125-500 μM); for Malachite (SHIP1), 125 μM / Malachite (SHIP1), 250 μM / Malachite (SHIP1), 500 μM: bis-sulfonamide hybrids. As to the method:
^aPhosphatase activity for SHIP1 and SHIP2 enzyme as determined in the malachite green assay. Results were normalized to the phosphatase activity level from vehicle control (DMSO) used as 100% activity. Values >100% are attributed to activation, while values <100% show inhibition of the enzyme compared to the control. The assay was performed at the indicated concentration of the small molecule with 100 μM PI(3,4,5)P3-diC8 as the substrate. ^bnd=not determined, compound 23 was insoluble.
Cloning and expression of tSHIP1 of truncated human SHIP1 protein (tSHIP1) from human whole blood mRNA have been previously described (see Brooks R, Iyer, S., Akada, H., Neelam, S., Russo, C. M., Chisholm, J. D., and Kerr W. G. Coordinate Expansion of Murine Hematopoietic and Mesenchymal Stem Cell Compartments by SHIPi Stem Cells 2015; 33:848). Briefly, tSHIP1 (SHIP1, residues 397-864) was amplified from pET24TEV-tSHIP1. Plasmids were extracted with Midi Prep (Qiagen) and sequences were verified by sequencing of the entire expression regions. The plasmids were then transformed into E. coli BL21 (New England Biolabs). Fresh colonies were amplified in 1 L LB at 37° C., shaking at 250 rpm until OD600 nm reached 0.6. Protein expression was induced with […] IPTG and incubation was continued at 16° C., shaking at 250 rpm for 16 h. Following centrifugation, bacteria pellets were stored overnight at −20° C. Protein was extracted form bacterial cell pellet using BugBuster HT (Millipore), according to manufacturer's recommendations. The His-tagged protein was purified by FPLC using HisTrapHP 5 ml column (Cytiva Life Sciences) at a 5 ml/min flow rate and 10 mM-1M imidazole gradient in Buffer A (20 mM Tris pH 8.0, 300 mM NaCl, 10 mM imidazole, 5 mM β-mercaptoethanol). Fractions containing active protein by Malachite Green Phosphatase Release Assay (Echelon, see below) were pooled, concentrated and buffer exchanged to reduce imidazole concentration by centrifugation using Pierce Protein Concentrators 30KMWCO PES, (ThermoFisher Scientific). Protein was aliquoted and stored at −80° C. in a mixture of Buffer A (without β-ME) and 50% glycerol.
Malachite Green Phosphatase Release Assays: Malachite Green Phosphatase Release Assays (Echelon Biosciences) were performed with recombinant human truncated SHIP1 (tSHIP1) (Brooks, 2015) and SHIP2 (Echelon Biosciences). Briefly, serial dilutions of the compounds dissolved in DMSO were added to the recombinant enzymes diluted in reaction buffer Rx (50 mM Hepes pH 7.4, 150 mM NaCl, 1 mM MgCl2, 0.25 mM EDTA) in triplicate reactions in 96-well plates. Reactions were incubated for 2 min at room temperature. […] of 1 mM Phosphatidylinositol 3,4,5-trisphosphate diC8 (PI(3,4,5)P3diC8) (Echelon Biosciences) was added to each reaction to a final concentration of 100 μM in a final volume of […]. Following 20 min incubation at 37° C., 100 μL of Malachite Green Solution (Echelon Biosciences) was added to each well and plates were incubated at room temperature in the dark for 15 min. Plates were then read at 620 nm on a plate reader (Synergy 2, BioTek).

For the compound `Cc1sc(S(=O)(=O)N2CCSCC2)cc1NC(=O)CNC(=O)OCc1ccccc1` [Compound K373, Benzyl N-({[2-methyl-5-(thiomorpholine-4-sulfonyl)thiophen-3-yl]carbamoyl}methyl) carbamate], the “Phosphatase activity in the Malachite Green Assay, analog concentration 125 μM” value is given as 93%; the “Phosphatase activity in the Malachite Green Assay, analog concentration 250 μM” value was 102%; the “Phosphatase activity in the Malachite Green Assay, analog concentration 500 μM” value was found to be 105%; the “SHIP1 activator activity in the malachite green assay” value (from here on “SHIP1 activator activity”) is “loss of potency”.

As to `O=C(Nc1ccc(S(=O)(=O)N2CCCCC2)cc1)[C@@H]1CCCN1S(=O)(=O)c1ccccc1C(F)(F)F` [Compound K420], the “Malachite (SHIP1), 125 μM” value was 99%; the “Malachite (SHIP1), 250 μM” value amounted to 112%; the “Malachite (SHIP1), 500 μM” value came out at 138%.

Turning to `O=C(CNS(=O)(=O)c1ccc(F)cc1)Nc1cc(S(=O)(=O)N2CCSCC2)sc1Cl` [Compound K401, N-[2-Chloro-5-(thiomorpholine-4-sulfonyl)thiophen-3-yl]-2-(4-fluorobenzenesulfonamido) acetamide], the “Phosphatase activity in the Malachite Green Assay, analog concentration 125 μM” value stood at 102%; the “Phosphatase activity in the Malachite Green Assay, analog concentration 250 μM” value was found to be 109%; the “Phosphatase activity in the Malachite Green Assay, analog concentration 500 μM” value was determined as 125%; the “SHIP1 activator activity” value is “nearly equipotent as the parent K306 structure”.

For `Cc1sc(S(=O)(=O)N2CCOCC2)cc1NC(=O)CNS(=O)(=O)c1ccc(F)cc1` [Compound K367, 2-(4-Fluorobenzenesulfonamido)-N-[2-methyl-5-(morpholine-4-sulfonyl)thiophen-3-yl]acetamide], the “Phosphatase activity in the Malachite Green Assay, analog concentration 250 μM” value is given as 93%; the “Phosphatase activity in the Malachite Green Assay, analog concentration 500 μM” value is given as 94%; the “SHIP1 activator activity” value was “loss of activity”.

For the compound `Cc1sc(S(=O)(=O)N2CCSCC2)cc1NC(=O)[C@H](Cc1ccccc1)NS(=O)(=O)c1ccc(F)cc1` [Compound K396, (2S)-2-(4-Fluorobenzenesulfonamido)-N-[2-methyl-5-(thiomorpholine-4-sulfonyl)thiophen-3-yl]-3-phenylpropanamide], the “Phosphatase activity in the Malachite Green Assay, analog concentration 125 μM” value turned out to be 71%; the “Phosphatase activity in the Malachite Green Assay, analog concentration 250 μM” value came to 74%; the “Phosphatase activity in the Malachite Green Assay, analog concentration 500 μM” value is listed as 130%.

Take `Cc1sc(S(=O)(=O)N2CCCC2)cc1NC(=O)CNS(=O)(=O)c1ccc(F)cc1` [Compound K387, 2-(4-Fluorobenzenesulfonamido)-N-[2-methyl-5-(pyrrolidine-1-sulfonyl)thiophen-3-yl]acetamide]: the “Phosphatase activity in the Malachite Green Assay, analog concentration 125 μM” value is 100%; the “Phosphatase activity in the Malachite Green Assay, analog concentration 250 μM” value came out at 97%; the “Phosphatase activity in the Malachite Green Assay, analog concentration 500 μM” value stood at 90%; the “SHIP1 activator activity” value is on record as “loss of activity”.

Take `Cc1sc(S(=O)(=O)N2CCSCC2)cc1NC(=O)[C@@H](Cc1ccccc1)NS(=O)(=O)c1ccc(F)cc1` [Compound K395, (2R)-2-(4-Fluorobenzenesulfonamido)-N-[2-methyl-5-(thiomorpholine-4-sulfonyl)thiophen-3-yl]-3-phenylpropanamide]: the “Phosphatase activity in the Malachite Green Assay, analog concentration 125 μM” value is reported as 112%; the “Phosphatase activity in the Malachite Green Assay, analog concentration 250 μM” value is reported as 106%; the “Phosphatase activity in the Malachite Green Assay, analog concentration 500 μM” value is 106%.

Turning to `Cc1sc(S(=O)(=O)N2CCSCC2)cc1NC(=O)CNS(=O)(=O)c1cccc([N+](=O)[O-])c1` [Compound K392, N-[2-methyl-5-(thiomorpholine-4-sulfonyl)thiophen-3-yl]-2-(3-nitrobenzenesulfonamido) acetamide], the “Phosphatase activity in the Malachite Green Assay, analog concentration 250 μM” value came out at 102%; the “Phosphatase activity in the Malachite Green Assay, analog concentration 500 μM” value amounted to 106%; the “SHIP1 activator activity” value was “disappointing”.

Turning to `Cc1sc(S(=O)(=O)N2CCSCC2)cc1NC(=O)CNS(=O)(=O)c1ccccc1[N+](=O)[O-]` [Compound K391, N-[2-Methyl-5-(thiomorpholine-4-sulfonyl)thiophen-3-yl]-2-(2-nitrobenzenesulfonamido) acetamide], the “Phosphatase activity in the Malachite Green Assay, analog concentration 125 μM” value is on record as 117%; the “Phosphatase activity in the Malachite Green Assay, analog concentration 250 μM” value is 133%; the “Phosphatase activity in the Malachite Green Assay, analog concentration 500 μM” value is on record as 163%; the “SHIP1 activator activity” value is listed as “quite active”.

`CCCCNS(=O)(=O)c1ccc(NC(=O)[C@@H]2CCCN2S(=O)(=O)c2ccc(C(F)(F)F)cc2)cc1` [Compound K425]: the “Malachite (SHIP1), 125 μM” value is listed as 75%; the “Malachite (SHIP1), 250 μM” value was determined as 80%; the “Malachite (SHIP1), 500 μM” value is on record as 81%.

Regarding `Cc1sc(S(=O)(=O)N(C)C)cc1NC(=O)CNS(=O)(=O)c1ccc(F)cc1` [Compound K388, N-[5-(Dimethylsulfamoyl)-2-methylthiophen-3-yl]-2-(4-fluorobenzenesulfonamido) acetamide], the “Phosphatase activity in the Malachite Green Assay, analog concentration 125 μM” value is 100%; the “Phosphatase activity in the Malachite Green Assay, analog concentration 250 μM” value came out at 97%; the “Phosphatase activity in the Malachite Green Assay, analog concentration 500 μM” value was 94%.

On to `Cc1sc(S(=O)(=O)N2CCSCC2)cc1NC(=O)CN` [Compound K378, 2-Aminotrifluoroacetate-N-[2-methyl-5-(thiomorpholine-4-sulfonyl)thiophene-3-yl]acetamide], for which the “Phosphatase activity in the Malachite Green Assay, analog concentration 125 μM” value amounted to 103%; the “Phosphatase activity in the Malachite Green Assay, analog concentration 250 μM” value is 104%; the “Phosphatase activity in the Malachite Green Assay, analog concentration 500 μM” value is given as 107%; the “SHIP1 activator activity” value is “reduced effect on SHIP activation”.

For `O=C(Nc1ccc(S(=O)(=O)N2CCCCC2)cc1)[C@@H]1CCCN1S(=O)(=O)c1ccc(C(F)(F)F)cc1` (stereo in doubt) [Compound K423], the “Malachite (SHIP1), 125 μM” value is 99%; the “Malachite (SHIP1), 250 μM” value is given as 109%; the “Malachite (SHIP1), 500 μM” value was 136%.

As for `Cc1sc(S(=O)(=O)N2CCSCC2)cc1N` [Compound K381], the “Phosphatase activity in the Malachite Green Assay, analog concentration 125 μM” value was found to be 109%; the “Phosphatase activity in the Malachite Green Assay, analog concentration 250 μM” value was 107%; the “Phosphatase activity in the Malachite Green Assay, analog concentration 500 μM” value is 113%; the “SHIP1 activator activity” value is reported as “reduced effect on SHIP activation”.

For `CCCCNS(=O)(=O)c1ccc(NC(=O)[C@@H]2CCCN2S(=O)(=O)c2ccccc2C(F)(F)F)cc1` [Compound K424], the “Malachite (SHIP1), 125 μM” value is listed as 79%; the “Malachite (SHIP1), 250 μM” value came out at 84%; the “Malachite (SHIP1), 500 μM” value is listed as 91%.

The values are drawn from patent publication US20260199365A1, “BIS-SULFONAMIDE SHIP1 ACTIVATORS” (The Research Foundation for the State University of New York, priority 2022, published 2026).
